System: human MDR1 P-gp
Experiment: Efflux in MDCK cells transfected with the human MDR1 gene (MDCK-PGP permeability)
Assay type: in vitro ADME, canine
Conditions: dog, pH 7.4, 37° C.; for efflux ratio: PEBA/PEAB; for Papp A→B: apical-to-basal apparent permeability (PEAB)
Experimental: Assessment of Efflux in Madin-Darby Canine Kidney (MDCK) Cells Transfected with the 30 Human MDR1 Gene to Assess Brain Penetration (Drug Metabolism and Disposition February 2008, 36 (2) 268-275; DOI: https://doi.org/10.1124/dmd.107.017434) Apparent permeability coefficients (PE) of the compounds across the MDCK-MDR1 cell monolayers are measured (pH 7.4, 37° C.) in apical-to-basal (AB) and basal-to-apical (BA) transport direction. AB permeability (PEAB) represents drug absorption from the blood into the 35 brain and BA permeability (PEBA) drug efflux from the brain back into the blood via both passive permeability as well as active transport mechanisms mediated by efflux and uptake transporters that are expressed on the MDCK-MDR1 cells, predominantly by the overexpressed human MDR1 P-gp. The compounds are assigned to permeability/absorption classes by comparison of the AB permeabilities with the AB permeabilities of reference compounds with known in vitro permeability and oral absorption in the human. Identical or similar permeabilities in both transport directions indicate passive permeation, vectorial permeability points to additional active transport mechanisms. Higher PEBA than PEAB indicates the involvement of active efflux mediated by MDR1 P-gp. Active transport is concentration-dependently saturable.
MDCK-MDR1 cells (1-2×10e5 cells/1 cm2 area) are seeded on filter inserts (Costar transwell polycarbonate or PET filters, 0.4 μm pore size) and cultured (DMEM) for 7 days. Subsequently, the MDR1 expression is boosted by culturing the cells with 5 mM sodium butyrate in full medium for 2 days. Compounds are dissolved in appropriate solvent (like DMSO, 1-20 mM stock solutions). Stock solutions are diluted with HTP-4 buffer (128.13 mM NaCl, 5.36 mM KCl, 1 mM MgSO4, 1.8 mM CaCl2, 4.17 mM NaHCO3, 1.19 mM Na2HPO4×7H2O, 0.41 mM NaH2PO4xH2O, 15 mM HEPES, 20 mM glucose, 0.25% BSA, pH 7.4) to prepare the transport solutions (0.1-300 μM compound, final DMSO <=0.5%). The transport solution (TL) is applied to the apical or basolateral donor side for measuring A-B or B-A permeability (3 filter replicates), respectively. The receiver side contains the same buffer as the donor side. Samples are collected at the start and end of experiment from the donor and at various time intervals for up to 2 hours also from the receiver side for concentration measurement by HPLC-MS/MS or scintillation counting. Sampled receiver volumes are replaced with fresh receiver solution.

| efflux ratio | Papp A→B | Compound |
| --- | --- | --- |
| 0.7 | 67.8 ×10⁻⁶ cm/s | Cc1ncc(-c2ccc(OCc3c(C)nnn3-c3ccc(C(F)F)cc3)nn2)o1 [Example 6] |
| 2.7 | 17.7 ×10⁻⁶ cm/s | CCn1cc(-c2ccc(OCc3c(C)nnn3-c3ccc(C(F)F)cc3)nn2)cn1 [Example 7] |
| 3.7 | 18.8 ×10⁻⁶ cm/s | Cc1cc(-c2ccc(OCc3c(C)nnn3-c3ccc(C(F)F)cc3)nn2)cnn1 [Example 11] |
| 1.2 | 25 ×10⁻⁶ cm/s | Cc1nnn(-c2ccc(C(F)F)cc2)c1COc1ccc(-n2ccc(C(N)=O)n2)nn1 [Example 21] |
| 1.1 | 49.6 ×10⁻⁶ cm/s | Cc1nnn(-c2ccc(C(F)F)cc2)c1COc1ccc(-c2cncnc2)nn1 [Example 22] |
| 0.3 | 56.1 ×10⁻⁶ cm/s | Cc1nnn(-c2ccc(C(F)F)cc2)c1COc1ccc(-n2cc(C(F)(F)F)cn2)nn1 [Example 25] |
| 2.8 | 18.8 ×10⁻⁶ cm/s | COC(=O)c1cn(-c2ccc(OCc3c(C)nnn3-c3ccc(C(F)F)cc3)nn2)cn1 [Example 29] |
| 3.4 | 17.6 ×10⁻⁶ cm/s | CC(=O)c1cn(-c2ccc(OCc3c(C)nnn3-c3ccc(C(F)F)cc3)nn2)cn1 [Example 32] |
| 0.8 | 0.7 ×10⁻⁶ cm/s | Cc1nnn(-c2ccc(C(F)F)cc2)c1COc1ccc(-n2cnc(C(=O)O)c2)nn1 [Example 37, 1-[6-({1-[4-(difluoromethyl)phenyl]-4-methyl-1H-1,2,3-triazol-5-yl}methoxy)pyridazin-3-yl]-1H-imidazole-4-carboxylic acid] |

Second part, the molecule before the results:

| Compound | efflux ratio | Papp A→B |
| --- | --- | --- |
| COc1ncc(-c2ccc(OCc3c(C)nnn3-c3ccc(C(F)F)cc3)nn2)cn1 [Example 3] | 0.6 | 59.7 ×10⁻⁶ cm/s |
| Cc1nnn(-c2ccc(C(F)F)cc2)c1COc1ccc(-c2cnn(C3CC3)c2)nn1 [Example 9] | 0.8 | 42.4 ×10⁻⁶ cm/s |
| CNC(=O)c1cn(-c2ccc(OCc3c(C)nnn3-c3ccc(C(F)F)cc3)nn2)cn1 [Example 14] | 3.8 | 14.6 ×10⁻⁶ cm/s |
| Cc1nnn(-c2ccc(C(F)F)cc2)c1COc1ccc(-n2cnc(C(F)F)c2)nn1 [Example 15] | 1.1 | 31.8 ×10⁻⁶ cm/s |
| Cc1nnn(-c2ccc(C(F)F)cc2)c1COc1ccc(-n2cnc(Cl)c2)nn1 [Example 18] | 1.1 | 28.5 ×10⁻⁶ cm/s |
| Cc1nnn(-c2ccc(C(F)F)cc2)c1COc1ccc(-n2ccc(C#N)n2)nn1 [Example 20] | 0.6 | 52 ×10⁻⁶ cm/s |
| Cc1nnn(-c2ccc(C(F)F)cc2)c1COc1ccc(-n2ccc(C(F)(F)F)n2)nn1 [Example 24] | 0.4 | 51.3 ×10⁻⁶ cm/s |
| Cc1ncn(-c2ccc(OCc3c(C)nnn3-c3ccc(C(F)F)cc3)nn2)n1 [Example 33] | 0.9 | 52.2 ×10⁻⁶ cm/s |
| Cc1nnn(-c2ccc(C(F)F)cc2)c1COc1ccc(-n2cnc(C[N+](C)(C)C)c2)nn1.O=C([O-])C(F)(F)F [Example 36, ({1-[6-({1-[4-(difluoromethyl)phenyl]-4-methyl-1H-1,2,3-triazol-5-yl}methoxy)pyridazin-3-yl]-1H-imidazol-4-yl}methyl)trimethylazanium trifluoroacetate] | 0.5 | 0.6 ×10⁻⁶ cm/s |

Reference: patent US10941137B2, “Difluoromethyl-phenyl triazoles” (Boehringer Ingelheim International GmbH, priority 2018, dated 2021)
